This passage reports IC50 results from ChEMBL document CHEMBL1134909, “A 5-fluorodeoxyuridine prodrug as targeted therapy for prostate cancer” (Bioorg Med Chem Lett, 2002).

*1 amine or outer side, *2 acyl side, *3 side chain or, on linkers, in order; H or OH if unused. Where a SMILES comes first, the peptide text is derived from it. [ ]: non-standard residue; d: D form. The star is where a group is joined. X1 = O=c1[nH]c(=O)n([C@H]2C[C@H](O)[C@@H](CO*)O2)cc1F; Morpholide = C1CN(*)CCO1; Aib = CC(C)(N)C(=O)O; CO = O=C([*:1])[*:2]

In one assay the test system is LNCaP. Nature of the assay: Cytotoxic concentration in prostate specific antigen (PSA) producing human LNCaP cells. It is filed as functional, cell-based.
A further assay concerns TSU. Nature of the assay: Cytotoxic concentration in non prostate specific antigen (PSA) producing human TSU cells. It is filed as functional, cell-based.

Broadly, the IC50 is the concentration that inhibits the measured activity by half. Read a low IC50 as inhibition by little substance. As for `CC(C)C[C@H](NC(=O)[C@H](CCCCN)NC(=O)[C@H](CO)NC(=O)[C@H](CO)NC(=O)[C@H](Cc1c[nH]cn1)NC(=O)N1CCOCC1)C(=O)N[C@@H](CCC(N)=O)C(=O)N[C@@H](CC(C)C)C(=O)NC(C)(C)C(=O)OC[C@H]1O[C@@H](n2cc(F)c(=O)[nH]c2=O)C[C@@H]1O` ({Morpholide-CO}-HSSKLQL[Aib]-X1), the IC50 in the assay on LNCaP stood at 117 nM; in the assay with TSU, 7200 nM.
With `O=c1[nH]c(=O)n([C@H]2C[C@H](O)[C@@H](CO)O2)cc1F` [FLOXURIDINE], the 50% inhibitory concentration (IC50) amounted to 69.2 nM in the assay with LNCaP and 58 nM with TSU.
